Experimental data as given in patent publication US20110268688A1, “METHOD AND COMPOSITIONS FOR IMPROVING SKIN AND BODY APPEARANCE” (priority 2008, published 2011).

Test system: adipocytes
Experiment: Lypolysis Assay Kit (dual glycerol and free fatty acids detection), adipocyte lipolytic activity
Type: cell-based
Details: forskolin 25, 2.5, 0.25 micromolar; conjugated linoleic acid 10, 1, 0.1 micromolar; 5 hours at 37° C.; optical density at 540 nanometers
Protocol: Suitable lipolytic agents may be identified by conducting a simple test using a lipolysis assay kit purchased from Zen-Bio. One suitable kit is the Lypolysis Assay Kit (dual glycerol and free fatty acids detection, reagents+cells) purchased from Zen-Bio (www.zen-bio.com) under catalog no. LIP-3.
The adipocyte lipolytic activity of ingredients was tested using Lypolysis Assay Kit (dual glycerol and free fatty acids detection, reagents+cells) purchased from Zen-Bio (www.zen-bio.com) under catalog no. LIP-3. Serial dilutions of forskolin and conjugated linoleic acid were prepared in Krebs-Ringer Buffer containing 1% by weight free fatty acid bovine serum albumin. Culture medium was removed from the plate wells and the cells were washed with phosphate buffered saline. The forskolin test material was added to the test wells to provide wells having a total concentration of 25, 2.5, and 0.25 micromolar. The conjugated linoleic acid test material was added to the test wells to provide concentrations of 10, 1, and 0.1 micromolar. The plate was incubated for 5 hours at 37° C. Fifty microliters of test material was removed from each plate and transferred to clean wells. Triglyceride breakdown was tested by measuring for the presence of glycerol or NEFA (non-esterified fatty acids). […] The optical density of each well of the glycerol and NEFA plate wells was measured at 540 nanometers.

conjugated linoleic acid
adipocyte lipolytic activity (triglyceride breakdown, glycerol or NEFA): effective in increasing lipolysis of adipocytes
